Laboratory results published in PubChem BioAssay AID1963421 (Molecular Pharmacology Branch, DTP, NCI, 2024).

Test system: 519858-162-T-J1-PDC complex spheroid growth, % test/control
Assay: Anticancer human tumor 519858-162-T-J1-PDC patient-derived colon adenocarcinoma cell line growth inhibition [Asc]
Conditions: for IC50: curve of first compound; for viability, T/C: stronger effect = lower value
Experimental: Multicellular complex tumor spheroid response to apoptosis pathway targeting inhibitors Alrizomadlin, Pelcitoclax, and Dasminapant in combination with a variety of drugs and investigational agents in selected tumor cell lines
The MDM2 inhibitor alrizomadlin, the Bcl-2/Bcl-xL inhibitor pelcitoclax, and the IAPs inhibitor dasminapant were evaluated both individually and in combination with standard of care and investigational anticancer small molecules within a complex spheroid model of solid tumors. . Complex spheroids include a stromal component modeled by human endothelial cells (HUVEC) and fibroblasts modeled by human mesenchymal stem cells (MSCs). The concentration ranges selected for each drug and investigational agent were based upon clinically achievable concentrations if the clinical Cmax of the agent was known.
Compounds. The drugs and investigational agents: alrizomadlin (APG-115; NSC831270), pelcitoclax (APG-1252; NSC835773), dasminapant (APG-1387;NSC834197), TAK-243 (NSC785004), copanlisib (NSC809693), olaparib (NSC753686), talazoparib (NSC767125), cobimetinib (NSC 768068), eltanexor (KPT-8602, NSC 794443), abemaciclib (NSC 768073), sotorasib (NSC818433), adagrasib (NSC 831453), MRTX-1133 (NSC 836407), Iadademestat (ORY1001, NSC 806812), and RMC-4630 (NSC839698), were obtained from the NCI Developmental Therapeutics Program Chemical Repository. The FDA-approved anticancer drug set is available from the Developmental Therapeutics Program at https://dtp.cancer.gov/organization/dscb/obtaining/available plates.htm. […] The stock solutions were prepared in dimethyl sulfoxide (DMSO, Sigma-Aldrich, St. Louis, MO, cat. D2650) at 800-fold the tested concentration and stored at -70 degrees C prior to their use. All drugs and investigational agents were tested over a range starting from a high concentration at or near the clinical Cmax and decreasing in half-log increments. If the clinical Cmax for an agent had not been determined, the highest concentration tested was 10 microM.
The patient-derived cancer (PDC) cell lines include five colon adenocarcinomas: 186277-243-T-J2-PDC, 616215-338-R-J1-PDC, 439559-082-T-J2-PDC, 463943-066-T-J2-PDC, and 519858-162-T-J1-PDC; three pancreatic carcinomas: 323965-272-R-J2-PDC, 521955-158-R6-J3-PDC, and 521955-158-R2-J5-PDC; two uterine sarcomas: 327498-152-R-J2-PDC and 993429-296-R-J1-PDC; two rhabdomyosarcomas: 755483-174-R-J1-PDC and 772245-204-R-J1-PDC; two soft tissue sarcomas: 126254-015-R-J1-PDC and 494315-158-R-J1-PDC; two malignant fibrous histiocytomas: 317291-083-R-J1-PDC and 596521-263-R-J1-PDC; two breast carcinomas: 171881-019-R-J1-PDC and 885512-296-R-J2-PDC; and one ovarian carcinoma: 6556581-035-R-J-PDC were obtained from the NCI PDMR, (https://pdmr.cancer.gov). The established cell lines HSSY-2 synovial sarcoma (RRID:CVCL 8719), SYO-1 synovial sarcoma (RRID:CVCL_7146), MPNST malignant peripheral neural sheath tumor were obtained from the Sloan Kettering Institute. The following established cell lines were purchased from the American Type Culture Collection (ATCC, Manassas, VA), Sor the received from the NCI repository:, PANC-1 pancreatic carcinoma (CRL-1469, RRID:CVCL_0480), OVCAR-5 ovarian carcinoma (RRID:CVCL_1628), OVCAR-8 ovarian carcinoma (RRID:CVCL_1629), , MCF-7 breast carcinoma (CRL-12584, RRID:CVCL_0031), MDA-MB-231 breast carcinoma (CRL-12532, RRID:CVCL_0062), NCI-H1876 small cell lung carcinoma (CRL-5902, RRID:CVCL_1503), NCI-H510A small cell lung carcinoma (HTB-184, RRID:CVCL_1565), NCI-H1417 (CRL-5869, RRID:CVCL_1469), and NCI-H196 small cell lung carcinoma (CRL-5823, RRID:CVCL_1509). Dr. Peter Houghton (Greehey Children's Cancer Research Institute, University of Texas Health Science Center, San Antonio, TX) provided Rh-18 rhabdomyosarcoma (RRID:CVCL_1659). Pooled donor human umbilical vein endothelial cells (HUVEC, Lonza, cat. CC-2519) and human mesenchymal stem cells (hMSC, Lonza, cat. PT-2501) were purchased from Lonza (Walkersville, MD).
Cell Culture. […]
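Also: seven day drug exposure begun three days after spheroid seeding.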
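For viability, T/C in this document: 100% = DMSO vehicle wells and lower values mean less viable spheroid.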

C#Cc1c(F)ccc2cc(O)cc(-c3ncc4c(N5CC6CCC(C5)N6)nc(OCC56CCCN5CC(F)C6)nc4c3F)c12 (configuration not stated) + CCN1C(C(=O)NC23CCC(C(=O)O)(CC2)CC3)C(c2cccc(Cl)c2F)C2(C(=O)Nc3cc(Cl)ccc32)C12CCCCC2 gave an IC50 (second compound 0.00949 µM) of over 10 µM, an IC50 (second compound 0.03 µM) of over 10 µM and an IC50 (second compound 0.0949 µM) of over 10 µM. It also gave an IC50 (second compound 0.3 µM) of over 10 µM, an IC50 (second compound 0.949 µM) of over 10 µM and an IC50 (second compound 3 µM) of over 10 µM. It also gave a viability, T/C (second compound 0.00949 µM, first compound 0.0316 µM) of 75.2%, a viability, T/C (second compound 0.00949 µM, first compound 0.1 µM) of 104% and a viability, T/C (second compound 0.00949 µM, first compound 0.316 µM) of 84.3%. It also gave a viability, T/C (second compound 0.00949 µM, first compound 1 µM) of 66.3%, a viability, T/C (second compound 0.00949 µM, first compound 3.16 µM) of 82.3% and a viability, T/C (second compound 0.00949 µM, first compound 10 µM) of 64%. For the same molecule, the viability, T/C (second compound 0.03 µM, first compound 0.0316 µM) was 67.5%, the viability, T/C (second compound 0.03 µM, first compound 0.1 µM) was 84.6% and the viability, T/C (second compound 0.03 µM, first compound 0.316 µM) was 96.4%. For the same molecule, the viability, T/C (second compound 0.03 µM, first compound 1 µM) was 92.4%, the viability, T/C (second compound 0.03 µM, first compound 3.16 µM) was 94.3% and the viability, T/C (second compound 0.03 µM, first compound 10 µM) was 88.4%. For the same molecule, the viability, T/C (second compound 0.0949 µM, first compound 0.0316 µM) was 89.6%, the viability, T/C (second compound 0.0949 µM, first compound 0.1 µM) was 99.2% and the viability, T/C (second compound 0.0949 µM, first compound 0.316 µM) was 88.4%. It also gave a viability, T/C (second compound 0.0949 µM, first compound 1 µM) of 64.1%, a viability, T/C (second compound 0.0949 µM, first compound 3.16 µM) of 81.4% and a viability, T/C (second compound 0.0949 µM, first compound 10 µM) of 69%. It also gave a viability, T/C (second compound 0.3 µM, first compound 0.0316 µM) of 59.4%, a viability, T/C (second compound 0.3 µM, first compound 0.1 µM) of 95.5% and a viability, T/C (second compound 0.3 µM, first compound 0.316 µM) of 78.4%. It also gave a viability, T/C (second compound 0.3 µM, first compound 1 µM) of 71.2%, a viability, T/C (second compound 0.3 µM, first compound 3.16 µM) of 74.2% and a viability, T/C (second compound 0.3 µM, first compound 10 µM) of 102%. The viability, T/C (second compound 0.949 µM, first compound 0.0316 µM) was 53.3%, the viability, T/C (second compound 0.949 µM, first compound 0.1 µM) was 116% and the viability, T/C (second compound 0.949 µM, first compound 0.316 µM) was 81.3%. The viability, T/C (second compound 0.949 µM, first compound 1 µM) was 58.5%, the viability, T/C (second compound 0.949 µM, first compound 3.16 µM) was 86.6% and the viability, T/C (second compound 0.949 µM, first compound 10 µM) was 93.6%. The viability, T/C (second compound 3 µM, first compound 0.0316 µM) was 64.2%, the viability, T/C (second compound 3 µM, first compound 0.1 µM) was 60.6% and the viability, T/C (second compound 3 µM, first compound 0.316 µM) was 63.3%. It also gave a viability, T/C (second compound 3 µM, first compound 1 µM) of 77.7%, a viability, T/C (second compound 3 µM, first compound 3.16 µM) of 93% and a viability, T/C (second compound 3 µM, first compound 10 µM) of 66.7%.
